Tests used:
[1] = molecular target: HRAS wild-type protein (Homo sapiens, UniProt P01112); test: Binding to HRAS by surface plasmon resonance (SPR), KD and KD ratio to KRAS
How it was run: (§1)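 Each cycle, GDP-bound biotin-Avi RAS was captured (~100–300 RU), compound concentrations were injected low to high for 75 s each at 100 µL/min, then the chip was regenerated. Buffer: HBS pH 7.4, 10 mM MgCl2, 10 µM GDP, 1 mM DTT, 4% DMSO; 30°C. KD from a 1:1 binding model.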

[2] = molecular target: GDP-bound KRAS wild-type protein (Homo sapiens, UniProt P01116); test: Binding to KRAS by surface plasmon resonance (SPR), dissociation constant KD; details: Single Cycle Kinetics
How it was run: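 Recombinant RAS proteins bearing a biotinylated Avi tag and loaded with GDP served as the captured ligand, recaptured fresh every cycle. Binding responses were referenced to an uncoated surface and a buffer-only blank cycle. Dissociation constants were obtained by 1:1 model fitting at 30°C.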

[3] = test system: human lung cancer strain NCI-H441; type: cell-based
How it was run: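 Signal came from […] measured per well once the reagent was added. Beforehand, cells were cultured at 37°C and 5% carbon dioxide on a compound series serially diluted in dimethyl sulfoxide.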

[4] = molecular target: GDP-bound NRAS wild-type protein (Homo sapiens, UniProt P01111); test: Binding to NRAS by surface plasmon resonance (SPR), KD and KD ratio to KRAS
How it was run: as §1

[5] = ratio of KD for HRAS wild-type protein to KD for KRAS
[6] = ratio of KD for GDP-bound NRAS wild-type protein to KD for KRAS
[7] = ratio of KD with respect to HRAS wild-type protein to KD with respect to KRAS
[8] = ratio of KD with respect to GDP-bound NRAS wild-type protein to KD with respect to KRAS
[9] = ratio of KD value for HRAS wild-type protein to KD value for KRAS (SPR)
[10] = ratio of KD value for GDP-bound NRAS wild-type protein to KD value for KRAS (SPR)

GDP-bound NRAS wild-type protein, sequence (P01111 whole entry): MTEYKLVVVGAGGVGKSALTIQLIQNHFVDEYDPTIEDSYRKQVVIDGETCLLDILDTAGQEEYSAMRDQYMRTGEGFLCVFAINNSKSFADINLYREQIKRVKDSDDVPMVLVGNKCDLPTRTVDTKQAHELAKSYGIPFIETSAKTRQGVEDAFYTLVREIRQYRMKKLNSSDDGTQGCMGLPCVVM
HRAS wild-type protein, sequence (P01112 whole entry): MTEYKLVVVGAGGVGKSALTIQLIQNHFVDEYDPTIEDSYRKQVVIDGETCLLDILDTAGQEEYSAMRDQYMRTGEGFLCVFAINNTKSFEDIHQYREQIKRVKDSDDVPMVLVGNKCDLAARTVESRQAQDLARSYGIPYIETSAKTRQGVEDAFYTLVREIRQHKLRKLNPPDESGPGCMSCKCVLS
GDP-bound KRAS wild-type protein, sequence (P01116 1-188 isoform P01116-2): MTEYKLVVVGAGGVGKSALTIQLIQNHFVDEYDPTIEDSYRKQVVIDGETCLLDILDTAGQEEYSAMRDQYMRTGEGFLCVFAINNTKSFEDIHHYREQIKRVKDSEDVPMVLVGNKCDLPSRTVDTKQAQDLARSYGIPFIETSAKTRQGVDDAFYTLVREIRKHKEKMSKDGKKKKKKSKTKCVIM

SMILES: CC[C@H](C)[C@@H]1NC(=O)[C@H](CC(C)C)N(C)C(=O)C[C@@H](C)N(C)C(=O)[C@H](C2CCCC2)N(C)C(=O)C2(CCC2)NC(=O)[C@@H]2CCCN2C(=O)[C@H](CCc2cc(F)c(C(F)(F)F)c(F)c2)NC(=O)CN(C)C(=O)[C@H](Cc2ccc(C(F)(F)F)cc2)N2CC/C=C\C[C@@H](C2=O)N(C)C(=O)CN(C)C1=O [PP1099]
- HRAS /KRAS [1, 5]: A (a compound having 10 or more and less than 20 is denoted as A)
- Kd [2]: 0.58 nM
- IC50 [3]: 68.1 nM
- NRAS /KRAS [4, 6]: B (a compound having 3 or more and less than 10 is denoted as B)

SMILES: CCO[C@@H]1C[C@H]2C(=O)NC3(CCC3)C(=O)N(C)[C@@H](C3CCCC3)C(=O)N(C)[C@H](C)CC(=O)N(C)[C@@H](CC(C)C)C(=O)N[C@@H]([C@@H](C)CC)C(=O)N(C)CC(=O)N(C)[C@H]3C/C=C\CCN(C3=O)[C@@H](Cc3ccc(C(F)(F)F)cc3)C(=O)N(C)CC(=O)N[C@@H](CCc3cc(F)c(C(F)(F)F)c(F)c3)C(=O)N2C1 [PP1100]
- HRAS /KRAS [1, 5]: B (a compound having 3 or more and less than 10 is denoted as B)
- Kd [2]: 0.19 nM
- IC50 [3]: 17.6 nM
- NRAS /KRAS [4, 6]: B (a compound having 3 or more and less than 10 is denoted as B)

SMILES: CC[C@H](C)[C@@H]1NC(=O)[C@H](CC(C)C)N(C)C(=O)C[C@@H](C(=O)N2C[C@@H](C)O[C@@H](C)C2)N(C)C(=O)[C@H](C2CCCC2)N(C)C(=O)C2(CCCC2)NC(=O)[C@@H]2CCCN2C(=O)[C@H](CCc2ccc(C(F)(F)F)c(Cl)c2)NC(=O)CN(C)C(=O)[C@H](Cc2ccc(F)cc2)N2CCCCC[C@@H](C2=O)N(C)C(=O)CN(C)C1=O [PP1151]
- HRAS /KRAS [1, 7]: B (a compound having 3 or more and less than 10 is denoted as B)
- Kd ([2]; 1:1 binding model): 0.64 nM
- IC50 [3]: 97.1 nM
- NRAS /KRAS [4, 8]: B (a compound having 3 or more and less than 10 is denoted as B)

SMILES: CCO[C@@H]1C[C@H]2C(=O)NC3(CCC3)C(=O)N(C)[C@@H](C3CCCC3)C(=O)N(C)[C@H](C(=O)N(CC)CC)CC(=O)N(C)[C@@H](CC(F)F)C(=O)N[C@@H]([C@@H](C)CC)C(=O)N(C)CC(=O)N(C)[C@H]3C/C=C\CCN(C3=O)[C@@H](Cc3ccc(C(F)(F)F)cc3)C(=O)N(C)CC(=O)N[C@@H](CCc3cc(F)c(C(F)(F)F)c(F)c3)C(=O)N2C1 [PP1309]
- HRAS /KRAS [1, 7]: A (a compound having 10 or more and less than 20 is denoted as A)
- Kd ([2]; 1:1 binding model): 0.16 nM
- IC50 [3]: 5.3 nM
- NRAS /KRAS [4, 8]: A (a compound having 10 or more and less than 20 is denoted as A)

SMILES: CCO[C@@H]1C[C@H]2C(=O)NC3(CCC3)C(=O)N(C)[C@@H](C3CCCC3)C(=O)N(C)[C@H](C)CC(=O)N(C)[C@@H](CC3CC3)C(=O)N[C@@H]([C@@H](C)CC)C(=O)N(C)CC(=O)N(C)[C@H]3C/C=C\CCN(C3=O)[C@@H](Cc3ccc(F)cc3C)C(=O)N(C)CC(=O)N[C@@H](CCc3cc(F)c(C(F)(F)F)c(F)c3)C(=O)N2C1 [PP1489]
- HRAS /KRAS [1, 9]: B (a compound having 3 or more and less than 10 is denoted as B)
- Kd ([2]; 1:1 binding model): 2.6 nM
- IC50 [3]: 118 nM
- NRAS /KRAS [4, 10]: B (a compound having 3 or more and less than 10 is denoted as B)

SMILES: CCO[C@@H]1C[C@H]2C(=O)NC3(CCC3)C(=O)N(C)[C@@H](C3CCCC3)C(=O)N(C)[C@H](C)CC(=O)N(C)[C@@H](CC3CCCC3)C(=O)N[C@@H]([C@@H](C)CC)C(=O)N(C)CC(=O)N(C)[C@H]3C/C=C\CCN(C3=O)[C@@H](Cc3ccc(F)cc3)C(=O)N(C)CC(=O)N[C@@H](CCc3cc(F)c(C(F)(F)F)c(F)c3)C(=O)N2C1 [PP1492]
- HRAS /KRAS [1, 9]: B (a compound having 3 or more and less than 10 is denoted as B)
- Kd ([2]; 1:1 binding model): 0.94 nM
- IC50 [3]: 129 nM
- NRAS /KRAS [4, 10]: B (a compound having 3 or more and less than 10 is denoted as B)

SMILES: CCO[C@@H]1C[C@H]2C(=O)NC3(CCC3)C(=O)N(C)[C@@H](C3CCCC3)C(=O)N(C)[C@H](C)CC(=O)N(C)[C@@H](CC(C)C)C(=O)N[C@@H]([C@@H](C)CC)C(=O)N(C)CC(=O)N(C)[C@H]3C/C=C\CCN(C3=O)[C@@H](Cc3ccc(F)cc3C)C(=O)N(C)CC(=O)N[C@@H](CCc3cc(F)c(C(F)(F)F)c(F)c3)C(=O)N2C1 [PP1493]
- HRAS /KRAS [1, 9]: B (a compound having 3 or more and less than 10 is denoted as B)
- Kd ([2]; 1:1 binding model): 2.3 nM
- IC50 [3]: 135 nM
- NRAS /KRAS [4, 10]: B (a compound having 3 or more and less than 10 is denoted as B)

SMILES: CCO[C@@H]1C[C@H]2C(=O)NC3(CCC3)C(=O)N(C)[C@@H](C3CCCC3)C(=O)N(C)[C@H](C)CC(=O)N(C)[C@@H](CC(C)C)C(=O)N[C@@H]([C@@H](C)CC)C(=O)N(C)CC(=O)N(C)[C@H]3C/C=C\CCN(C3=O)[C@@H](Cc3ccc(F)cc3)C(=O)N(C)CC(=O)N[C@@H](CCc3cc(F)c(C(F)(F)F)c(F)c3)C(=O)N2C1 [PP1494]
- HRAS /KRAS [1, 9]: B (a compound having 3 or more and less than 10 is denoted as B)
- Kd ([2]; 1:1 binding model): 0.58 nM
- IC50 [3]: 142 nM
- NRAS /KRAS [4, 10]: B (a compound having 3 or more and less than 10 is denoted as B)

SMILES: CCO[C@@H]1C[C@H]2C(=O)NC3(CCC3)C(=O)N(C)[C@@H](C3CCCC3)C(=O)N(C)[C@H](C(=O)N3CCOCC3)CC(=O)N(C)[C@@H](CC3CC3)C(=O)N[C@@H]([C@@H](C)CC)C(=O)N(C)CC(=O)N(C)[C@H]3C/C=C\CCN(C3=O)[C@@H](Cc3ccc(F)cc3C)C(=O)N(C)CC(=O)N[C@@H](CCc3cc(F)c(C(F)(F)F)c(F)c3)C(=O)N2C1 [PP1495]
- HRAS /KRAS [1, 9]: B (a compound having 3 or more and less than 10 is denoted as B)
- Kd ([2]; 1:1 binding model): 0.55 nM
- IC50 [3]: 98.7 nM
- NRAS /KRAS [4, 10]: A (a compound having 10 or more and less than 20 is denoted as A)

SMILES: CC[C@H](C)[C@@H]1NC(=O)[C@H](CC2CCCC2)N(C)C(=O)C[C@@H](C(=O)N(C)C)N(C)C(=O)[C@H](C2CCCC2)N(C)C(=O)C2(CCC2)NC(=O)[C@@H]2C[C@@H](C(F)(F)F)CN2C(=O)[C@H](CCc2cc(F)c(C(F)(F)F)c(F)c2)NC(=O)CN(C)C(=O)[C@H](Cc2ccc(F)cc2)N2CC/C=C\C[C@@H](C2=O)N(C)C(=O)CN(C)C1=O [PP1508]
- HRAS /KRAS [1, 9]: A (a compound having 10 or more and less than 20 is denoted as A)
- Kd ([2]; 1:1 binding model): 0.15 nM
- IC50 [3]: 28.1 nM
- NRAS /KRAS [4, 10]: A (a compound having 10 or more and less than 20 is denoted as A)

SMILES: CC[C@H](C)[C@@H]1NC(=O)[C@H](CC2CC2)N(C)C(=O)C[C@@H](C(=O)N2CCCC2)N(C)C(=O)[C@H](C2CCCC2)N(C)C(=O)C2(CCCC2)NC(=O)[C@@H]2C[C@@H](C(F)(F)F)CN2C(=O)[C@H](CCc2cc(F)c(C(F)(F)F)c(F)c2)NC(=O)CN(C)C(=O)[C@H](Cc2ccc(F)cc2)N2CC/C=C\C[C@@H](C2=O)N(C)C(=O)CN(C)C1=O [PP1509]
- HRAS /KRAS [1, 9]: A (a compound having 10 or more and less than 20 is denoted as A)
- Kd ([2]; 1:1 binding model): 0.4 nM
- IC50 [3]: 67.9 nM
- NRAS /KRAS [4, 10]: A (a compound having 10 or more and less than 20 is denoted as A)

SMILES: CCO[C@@H]1C[C@H]2C(=O)NC3(CCC3)C(=O)N(C)[C@@H](C(CC)CC)C(=O)N(C)[C@H](C(=O)N(C)C)CC(=O)N(C)[C@@H](CC3CC3)C(=O)N[C@@H]([C@@H](C)CC)C(=O)N(C)CC(=O)N(C)[C@H]3C/C=C\CCN(C3=O)[C@@H](Cc3ccc(F)cc3C)C(=O)N(C)CC(=O)N[C@@H](CCc3cc(F)c(C(F)(F)F)c(F)c3)C(=O)N2C1 [PP1514]
- HRAS /KRAS [1, 9]: A (a compound having 10 or more and less than 20 is denoted as A)
- Kd ([2]; 1:1 binding model): 0.65 nM
- IC50 [3]: 72.7 nM
- NRAS /KRAS [4, 10]: A (a compound having 10 or more and less than 20 is denoted as A)

SMILES: CCO[C@@H]1C[C@H]2C(=O)NC3(CCC3)C(=O)N(C)[C@@H](C(CC)CC)C(=O)N(C)[C@H](C)CC(=O)N(C)[C@@H](CC3CC3)C(=O)N[C@@H]([C@@H](C)CC)C(=O)N(C)CC(=O)N(C)[C@H]3C/C=C\CCN(C3=O)[C@@H](Cc3ccc(F)cc3C)C(=O)N(C)CC(=O)N[C@@H](CCc3cc(F)c(C(F)(F)F)c(F)c3)C(=O)N2C1 [PP1520]
- HRAS /KRAS [1, 9]: A (a compound having 10 or more and less than 20 is denoted as A)
- Kd ([2]; 1:1 binding model): 6.6 nM
- IC50 [3]: 575 nM
- NRAS /KRAS [4, 10]: A (a compound having 10 or more and less than 20 is denoted as A)

SMILES: CCO[C@@H]1C[C@H]2C(=O)NC3(CCC3)C(=O)N(C)[C@@H](C(CC)CC)C(=O)N(C)[C@H](C)CC(=O)N(C)[C@@H](CC(C)C)C(=O)N[C@@H]([C@@H](C)CC)C(=O)N(C)CC(=O)N(C)[C@H]3C/C=C\CCN(C3=O)[C@@H](Cc3ccc(F)cc3C)C(=O)N(C)CC(=O)N[C@@H](CCc3cc(F)c(C(F)(F)F)c(F)c3)C(=O)N2C1 [PP1524]
- HRAS /KRAS [1, 9]: B (a compound having 3 or more and less than 10 is denoted as B)
- Kd ([2]; 1:1 binding model): 5.7 nM
- IC50 [3]: 439 nM
- NRAS /KRAS [4, 10]: B (a compound having 3 or more and less than 10 is denoted as B)

Reference: patent EP4603105A1, “PHARMACEUTICAL COMPOSITION CONTAINING CYCLIC COMPOUND HAVING SELECTIVE KRAS INHIBITORY EFFECT AGAINST HRAS AND NRAS” (CHUGAI SEIYAKU KABUSHIKI KAISHA, priority 2022, dated 2024)
